Marks after values point to notes of the source that are not given here.
Columns and labels:
Assay in all cases: microbe, parasite or virus in culture
[1] = tested on: A. baumannii clinical isolates
Procedure, shortened: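 MIC90 from CLSI broth microdilution (M07-A9) in two clinical-isolate panels. US panel (331 isolates, 2010-2012): AA139 diluted in 0.01% acetic acid/0.1% BSA. Worldwide panel (445 isolates, 2011-2013, four regions): CAMHB, with 0.002% Tween 80 added for AA139 and polymyxin B.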

S. enterica Typhi = S. enterica Typhi ATCC 14028 control strain, CDC 6516-60; CAMHB; mode of 6 replicates
Procedure, shortened: (§1)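 Broth microdilution in MHB, 2-fold 12-point series from 128 or 64 down to 0.06 or 0.03 μg mL^−1, 5 × 10^5 CFU mL^−1. Extra runs in CAMHB per CLSI and in MHB with 1% agarose; n ≥ 6.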

E. coli = tested on: E. coli
Procedure, shortened: as §1

K. pneumoniae = settings: mode of 6 replicates
Procedure, shortened: as §1

P. aeruginosa = settings: mode of 6 replicates
Procedure, shortened: as §1

A. baumannii = settings: mode of 6 replicates
Procedure, shortened: as §1

S. aureus = S. aureus ATCC 25923 MSSA; MHB; mode of 6 replicates
Procedure, shortened: as §1

[2] = A. baumannii, worldwide isolates 2011-2013, n = 108

## polymyxin B [PolymyxinB, reference compound]
[1]
  Number of isolates with MIC 0.125 (MIC frequency distribution): 4
[1]; [2]
  MIC50: 0.03 µg/mL
  MIC90: 0.125 µg/mL
[1]; A. baumannii, worldwide isolates 2011-2013, n = 108, count of isolates at MIC 0.03
  Number of isolates with MIC 0.03 (MIC frequency distribution): 75
[1]; A. baumannii, worldwide isolates 2011-2013, n = 108, count of isolates at MIC 0.06
  Number of isolates with MIC 0.06 (MIC frequency distribution): 18
[1]; A. baumannii, worldwide isolates 2011-2013, n = 108, count of isolates at MIC 0.25
  Number of isolates with MIC 0.25 (MIC frequency distribution): 0
[1]; A. baumannii, worldwide isolates 2011-2013, n = 108, count of isolates at MIC 0.5
  Number of isolates with MIC 0.5 (MIC frequency distribution): 2
[1]; A. baumannii, worldwide isolates 2011-2013, n = 108, count of isolates at MIC 1
  Number of isolates with MIC 1 (MIC frequency distribution): 2
[1]; A. baumannii, worldwide isolates 2011-2013, n = 108, count of isolates at MIC 2
  Number of isolates with MIC 2 (MIC frequency distribution): 1
[1]; A. baumannii, worldwide isolates 2011-2013, n = 108, count of isolates at MIC 4
  Number of isolates with MIC 4 (MIC frequency distribution): 1
[1]; A. baumannii, worldwide isolates 2011-2013, n = 108, count of isolates at MIC 8
  Number of isolates with MIC 8 (MIC frequency distribution): 3
[1]; A. baumannii, worldwide isolates 2011-2013, n = 108, count of isolates at MIC 16
  Number of isolates with MIC 16 (MIC frequency distribution): 0
[1]; A. baumannii, worldwide isolates 2011-2013, n = 108, count of isolates at MIC 32
  Number of isolates with MIC 32 (MIC frequency distribution): 0
[1]; A. baumannii, worldwide isolates 2011-2013, n = 108, count of isolates at MIC 64
  Number of isolates with MIC 64 (MIC frequency distribution): 0
[1]; A. baumannii, worldwide isolates 2011-2013, n = 108, count of isolates at MIC 128
  Number of isolates with MIC 128 (MIC frequency distribution): 0
[1]; A. baumannii, worldwide isolates 2011-2013, n = 108, count of isolates at MIC >16
  Number of isolates with MIC >16 (MIC frequency distribution): 0
[1]; A. baumannii, worldwide isolates 2011-2013, n = 108, count of isolates at MIC >32
  Number of isolates with MIC >32 (MIC frequency distribution): 0
[1]; A. baumannii, worldwide isolates 2011-2013, n = 108, count of isolates at MIC >128
  Number of isolates with MIC >128 (MIC frequency distribution): 0
[1]; A. baumannii, worldwide isolates 2011-2013, n = 108, count of isolates at MIC ≤0.015
  Number of isolates with MIC ≤0.015 (MIC frequency distribution): 2
S. enterica Typhi
  BMD MIC: 0.03 µg/mL
E. coli; BMD
  MIC against E. coli AID#172 MDR clinical isolate: 0.03 µg/mL
E. coli; E. coli ATCC 25922 FDA control strain, CAMHB, mode of 6 replicates
  BMD MIC: 0.125 µg/mL
E. coli; E. coli ATCC 25922 FDA control strain, MHB, mode of 6 independent biological replicates
  BMD MIC: 0.25 µg/mL
E. coli; E. coli ATCC 700926 K12 (MG1655), CAMHB, mode of 6 replicates
  BMD MIC: 0.015 µg/mL
E. coli; E. coli ATCC 700928 CFT073 UPEC, CAMHB, mode of 6 replicates
  BMD MIC: ≤0.25 µg/mL
E. coli; E. coli CI 12-6-83 Hong Kong, mcr-1 pos, ESBL, CAMHB, mode of 6 replicates
  BMD MIC: 2 µg/mL
K. pneumoniae; K. pneumoniae ATCC 13883 type strain (polymyxin/colistin heteroresistant), MHB
  BMD MIC: 0.5-8# μg mL-1
K. pneumoniae; K. pneumoniae ATCC 700603 (K6), MDR, OXA-2/SHV-18, CAMHB
  BMD MIC: 0.06 µg/mL
K. pneumoniae; K. pneumoniae ATCC 700603 (K6), MDR, OXA-2/SHV-18, MHB
  BMD MIC: 0.125 µg/mL
K. pneumoniae; K. pneumoniae BAA-2146, MDR, ESBL, NDM-1 pos, MHB
  BMD MIC: 0.125 µg/mL
K. pneumoniae; K. pneumoniae Greece CI 8_GR_13, XDR, KPC-2, PmxR, MHB
  BMD MIC: 32 µg/mL
P. aeruginosa; P. aeruginosa ATCC 27853 control strain, CAMHB
  BMD MIC: ≤0.25 µg/mL
P. aeruginosa; P. aeruginosa ATCC 27853 control strain, MHB
  BMD MIC: 0.25 µg/mL
P. aeruginosa; P. aeruginosa FADDI-070, MDR, PmxR, MHB/CAMHB
  BMD MIC: 32 µg/mL
A. baumannii; A. baumannii ATCC 19636 type strain, CAMHB
  BMD MIC: 0.06 µg/mL
A. baumannii; A. baumannii ATCC 19636 type strain, MHB
  BMD MIC: 0.03 µg/mL
A. baumannii; A. baumannii Greece CI, XDR, PmxR, MHB
  BMD MIC: 8 to 16 µg/mL
S. aureus
  BMD MIC: 128 µg/mL

From article PMC7311426, “An amphipathic peptide with antibiotic activity against multidrug-resistant Gram-negative bacteria” (Nature Communications, 2020)
